Data from patent US12577206B2 (BRISTOL-MYERS SQUIBB COMPANY, priority 2020, dated 2026).
pEC50: −log10 of the molar value.

Tests used:
[1] = target: T1, human FPR2 (Homo sapiens, UniProt P25090); assay: FPR2 cyclic adenosine monophosphate (cAMP) assay; format: cell-based; settings: CHO cells overexpressing human FPR2; forskolin 5 μM; inhibition of cAMP production; HTRF; read-out: hFPR2 cAMP2 EC50
T1 sequence (P25090 1-351): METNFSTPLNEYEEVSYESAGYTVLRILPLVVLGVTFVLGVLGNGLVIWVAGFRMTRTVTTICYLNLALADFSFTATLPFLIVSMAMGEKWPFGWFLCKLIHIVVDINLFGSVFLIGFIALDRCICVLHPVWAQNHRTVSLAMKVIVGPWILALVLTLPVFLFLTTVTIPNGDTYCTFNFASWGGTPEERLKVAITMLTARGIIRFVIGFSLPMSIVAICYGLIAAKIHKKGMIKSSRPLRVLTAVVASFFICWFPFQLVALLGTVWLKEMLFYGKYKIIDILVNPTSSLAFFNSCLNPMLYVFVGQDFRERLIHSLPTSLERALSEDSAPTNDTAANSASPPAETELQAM
In short: (§1)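 CHO cells overexpressing human FPR1 (4,000/well) or FPR2 (2,000/well) were incubated 30 min at room temperature with compound (0.020 nM to 100 μM, 1% DMSO), IBMX 200 μM, and forskolin at 10 μM (FPR1) or 5 μM (FPR2), all final. HTRF cAMP read-out; inhibition fitted by 4-parameter logistic equation.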

[2] = target: T2, human FPR1 (Homo sapiens, UniProt P21462); assay: FPR1 cyclic adenosine monophosphate (cAMP) assay; format: cell-based; settings: CHO cells overexpressing human FPR1; forskolin 10 μM; inhibition of cAMP production; HTRF; read-out: hFPR1 cAMP2 EC50
T2 sequence (P21462 1-350): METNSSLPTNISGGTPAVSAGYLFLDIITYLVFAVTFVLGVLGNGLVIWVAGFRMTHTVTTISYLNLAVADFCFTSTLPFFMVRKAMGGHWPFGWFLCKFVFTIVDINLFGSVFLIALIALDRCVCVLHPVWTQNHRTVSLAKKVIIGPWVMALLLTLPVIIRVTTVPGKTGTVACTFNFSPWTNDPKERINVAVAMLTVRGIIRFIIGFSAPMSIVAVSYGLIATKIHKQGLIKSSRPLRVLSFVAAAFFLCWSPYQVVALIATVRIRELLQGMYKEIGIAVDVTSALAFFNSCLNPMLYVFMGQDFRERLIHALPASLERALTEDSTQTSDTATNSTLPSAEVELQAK
In short: as §1

| pEC50 [1] | pEC50 [2] | SMILES |
| --- | --- | --- |
| 8.70 | 8.70 | COC(=O)c1cccc(-n2c(=O)c(NC(=O)c3ccc(OC(F)F)cc3)c(-c3c(F)cc(OC)cc3F)n2C)c1 [Example 113, methyl 3-[3-(2,6-difluoro-4-methoxyphenyl)-4-[4-(difluoromethoxy)benzamido]-2-methyl-5-oxo-2,5-dihydro-1H-pyrazol-1-yl]benzoate] |
| 8.30 | 6.55 | COc1cc(F)c(-c2c(NC(=O)c3ccc(OC(F)F)cc3)c(=O)n(-c3ccnc(OC)c3)n2C)c(F)c1 [Example 115, N-[5-(2,6-difluoro-4-methoxyphenyl)-2-(2-methoxypyridin-4-yl)-1-methyl-3-oxo-2,3-dihydro-1H-pyrazol-4-yl]-4-(difluoromethoxy)benzamide] |
| 7.68 | 5.70 | COc1cc(F)c(-c2c(NC(=O)c3ccc(OC(F)F)cc3)c(=O)n(-c3ccnc(Cl)c3)n2C)c(F)c1 [Example 116, N-[2-(2-chloropyridin-4-yl)-5-(2,6-difluoro-4-methoxyphenyl)-1-methyl-3-oxo-2,3-dihydro-1H-pyrazol-4-yl]-4-(difluoromethoxy)benzamide] |
| 8.10 | < 5.00 | COc1cc(-n2c(=O)c(NC(=O)c3ccc(OC(F)F)cc3)c(-c3c(F)cc(OC)cc3F)n2C)cc(C(F)(F)F)c1 [Example 117, N-[5-(2,6-difluoro-4-methoxyphenyl)-2-[3-methoxy-5-(trifluoromethyl)phenyl]-1-methyl-3-oxo-2,3-dihydro-1H-pyrazol-4-yl]-4-(difluoromethoxy)benzamide] |
| 8.22 | 8.52 | CCOc1cccc(-n2c(=O)c(NC(=O)c3ccc(OC(F)F)cc3)c(-c3c(F)cc(OC)cc3F)n2C)c1 [Example 118, N-[5-(2,6-difluoro-4-methoxyphenyl)-2-(3-ethoxyphenyl)-1-methyl-3-oxo-2,3-dihydro-1H-pyrazol-4-yl]-4-(difluoromethoxy)benzamide] |
| 8.10 | 7.19 | COc1cc(F)c(-c2c(NC(=O)c3ccc(OC(F)F)cc3)c(=O)n(-c3cc(C#N)cc(C(C)C)c3)n2C)c(F)c1 [Example 119, N-{2-[3-cyano-5-(propan-2-yl)phenyl]-5-(2,6-difluoro-4-methoxyphenyl)-1-methyl-3-oxo-2,3-dihydro-1H-pyrazol-4-yl}-4-(difluoromethoxy)benzamide] |
| 8.40 | 5.22 | COC(=O)c1cc(Cl)cc(-n2c(=O)c(NC(=O)c3ccc(OC(F)F)cc3)c(-c3c(F)cc(OC)cc3F)n2C)c1 [Example 120, methyl 3-chloro-5-[3-(2,6-difluoro-4-methoxyphenyl)-4-[4-(difluoromethoxy)benzamido]-2-methyl-5-oxo-2,5-dihydro-1H-pyrazol-1-yl]benzoate] |
| 8.22 | < 5.00 | COc1cc(C)cc(-n2c(=O)c(NC(=O)c3ccc(OC(F)F)cc3)c(-c3c(F)cc(OC)cc3F)n2C)c1 [Example 121, N-[5-(2,6-difluoro-4-methoxyphenyl)-2-(3-methoxy-5-methylphenyl)-1-methyl-3-oxo-2,3-dihydro-1H-pyrazol-4-yl]-4-(difluoromethoxy)benzamide] |
| 7.68 | < 5.00 | CCOc1cc(-n2c(=O)c(NC(=O)c3ccc(OC(F)F)cc3)c(-c3c(F)cc(OC)cc3F)n2C)cc(C(F)(F)F)c1 [Example 122, N-[5-(2,6-difluoro-4-methoxyphenyl)-2-[3-ethoxy-5-(trifluoromethyl)phenyl]-1-methyl-3-oxo-2,3-dihydro-1H-pyrazol-4-yl]-4-(difluoromethoxy)benzamide] |
| 7.72 | < 5.00 | COc1cc(F)c(-c2c(NC(=O)c3ccc(OC(F)F)cc3)c(=O)n(-c3cc(Cl)cc(OC(F)(F)F)c3)n2C)c(F)c1 [Example 123, N-{2-[3-chloro-5-(trifluoromethoxy)phenyl]-5-(2,6-difluoro-4-methoxyphenyl)-1-methyl-3-oxo-2,3-dihydro-1H-pyrazol-4-yl}-4-(difluoromethoxy)benzamide] |
| 8.40 | < 5.00 | COc1cc(Cl)cc(-n2c(=O)c(NC(=O)c3ccc(OC(F)F)cc3)c(-c3c(F)cc(OC)cc3F)n2C)c1 [Example 124, N-[2-(3-chloro-5-methoxyphenyl)-5-(2,6-difluoro-4-methoxyphenyl)-1-methyl-3-oxo-2,3-dihydro-1H-pyrazol-4-yl]-4-(difluoromethoxy)benzamide] |
| 8.40 | 5.70 | COc1cc(F)c(-c2c(NC(=O)c3ccc(OC(F)F)cc3)c(=O)n(-c3cc(F)cc(OC(C)C)c3)n2C)c(F)c1 [Example 125, N-[5-(2,6-difluoro-4-methoxyphenyl)-2-[3-fluoro-5-(propan-2-yloxy)phenyl]-1-methyl-3-oxo-2,3-dihydro-1H-pyrazol-4-yl]-4-(difluoromethoxy)benzamide] |
| 8.05 | 5.92 | COc1cc(F)c(-c2c(NC(=O)c3ccc(OC(F)F)cc3)c(=O)n(-c3cc(Cl)cc(C(=O)N(C)C)c3)n2C)c(F)c1 [Example 126, 3-chloro-5-[3-(2,6-difluoro-4-methoxyphenyl)-4-[4-(difluoromethoxy)benzamido]-2-methyl-5-oxo-2,5-dihydro-1H-pyrazol-1-yl]-N,N-dimethylbenzamide] |
| 8.10 | < 5.00 | COc1cc(F)c(-c2c(NC(=O)c3ccc(OC(F)F)cc3)c(=O)n(-c3cc(Cl)cc(Cl)c3)n2C)c(F)c1 [Example 127, N-[2-(3,5-dichlorophenyl)-5-(2,6-difluoro-4-methoxyphenyl)-1-methyl-3-oxo-2,3-dihydro-1H-pyrazol-4-yl]-4-(difluoromethoxy)benzamide] |
| 8.15 | 7.72 | COC(=O)c1cncc(-n2c(=O)c(NC(=O)c3ccc(OC(F)F)cc3)c(-c3c(F)cc(OC)cc3F)n2C)c1 [Example 128, methyl 5-[3-(2,6-difluoro-4-methoxyphenyl)-4-[4-(difluoromethoxy)benzamido]-2-methyl-5-oxo-2,3-dihydro-1H-pyrazol-1-yl]pyridine-3-carboxylate] |
| 7.62 | 5.66 | COc1cncc(-n2c(=O)c(NC(=O)c3ccc(OC(F)F)cc3)c(-c3c(F)cc(OC)cc3F)n2C)c1 [Example 129, N-[5-(2,6-difluoro-4-methoxyphenyl)-2-(5-methoxypyridin-3-yl)-1-methyl-3-oxo-2,3-dihydro-1H-pyrazol-4-yl]-4-(difluoromethoxy)benzamide] |
| 7.70 | 5.72 | COc1cc(F)c(-c2c(NC(=O)c3ccc(OC(F)F)cc3)c(=O)n(-c3cncc(Cl)c3)n2C)c(F)c1 [Example 130, N-[2-(5-chloropyridin-3-yl)-5-(2,6-difluoro-4-methoxyphenyl)-1-methyl-3-oxo-2,3-dihydro-1H-pyrazol-4-yl]-4-(difluoromethoxy)benzamide] |
| 7.96 | < 5.00 | COc1cc(F)c(-c2c(NC(=O)c3ccc(OC(F)F)cc3)c(=O)n(-c3cc(Cl)cc(C(F)(F)F)c3)n2C)c(F)c1 [Example 131, N-{2-[3-chloro-5-(trifluoromethyl)phenyl]-5-(2,6-difluoro-4-methoxyphenyl)-1-methyl-3-oxo-2,3-dihydro-1H-pyrazol-4-yl}-4-(difluoromethoxy)benzamide] |
| 8.22 | 7.08 | COc1cc(F)cc(-n2c(=O)c(NC(=O)c3ccc(OC(F)F)cc3)c(-c3c(F)cc(OC)cc3F)n2C)c1 [Example 132, N-[5-(2,6-difluoro-4-methoxyphenyl)-2-(3-fluoro-5-methoxyphenyl)-1-methyl-3-oxo-2,3-dihydro-1H-pyrazol-4-yl]-4-(difluoromethoxy)benzamide] |
| 8.52 | 6.26 | CCOC(=O)c1cc(F)cc(-n2c(=O)c(NC(=O)c3ccc(OC(F)F)cc3)c(-c3c(F)cc(OC)cc3F)n2C)c1 [Example 133, ethyl 3-[3-(2,6-difluoro-4-methoxyphenyl)-4-[4-(difluoromethoxy)benzamido]-2-methyl-5-oxo-2,5-dihydro-1H-pyrazol-1-yl]-5-fluorobenzoate] |
| 8.00 | < 5.00 | COc1cc(F)c(-c2c(NC(=O)c3ccc(OC(F)F)cc3)c(=O)n(-c3cc(C)cc(Cl)c3)n2C)c(F)c1 [Example 134, N-[2-(3-chloro-5-methylphenyl)-5-(2,6-difluoro-4-methoxyphenyl)-1-methyl-3-oxo-2,3-dihydro-1H-pyrazol-4-yl]-4-(difluoromethoxy)benzamide] |
| 8.52 | 5.62 | COc1cc(F)c(-c2c(NC(=O)c3ccc(OC(F)F)cc3)c(=O)n(-c3nc(N4CCN(C)CC4)ccc3C(F)(F)F)n2C)c(F)c1 [Example 135, N-[5-(2,6-difluoro-4-methoxyphenyl)-1-methyl-2-[6-(4-methylpiperazin-1-yl)-3-(trifluoromethyl)pyridin-2-yl]-3-oxo-2,3-dihydro-1H-pyrazol-4-yl]-4-(difluoromethoxy)benzamide] |
